In article PMC8066339, “Optimization of 2-Acylaminocycloalkylthiophene Derivatives for Activity against Staphylococcus aureus RnpA” (Antibiotics, 2021):
In brackets after ≈: the same amount, converted by molar mass. Several values for one entry are separate records, joined by “and”; a condition that tells them apart may be missing. Equal entries are not always repeated. Entries after “also recorded” stand apart in the source; their conditions may differ. Where two headings read alike, the source gives them in different places.

How the values were obtained:
[1] = system: RnpA-mediated ptRNA processing; assay: Cellular ptRNA^Tyr accumulation (qRT-PCR); type: cell-based, Staphylococcus aureus; conditions: 0.5X MIC for 1 h, Figure 3 right
Method: To evaluate the effects of each analog on cellular RnpA-mediated ptRNA processing, S. aureus cells were treated with a sub-inhibitory concentration of each analog (0.5X MIC) and qRT-PCR was used to measure ptRNA^Tyr accumulation, as previously described. […] Compounds RNP0007, 11,13, 14, 15, and 16 had little effect on ptRNA^Tyr levels in the cellular context.
Cellular S. aureus tRNA^Tyr pools were measured as previously described. […] The culture was removed, combined with an equal volume of acetone:ethanol (1:1 v/v) and stored at −80 °C.
Cell suspensions in acetone:ethanol were thawed on ice and centrifuged at 1560× g for 10 min at 4 °C. Acetone:ethanol was decanted, and pellets were left to air-dry for 5 min. Cell pellets were resuspended in 500 µL ice-cold TE buffer (10 mM Tris-HCl, pH 8.0, 1mM EDTA) and transferred to FastPrep Lysing Matrix B tubes (MP Biomedicals, Santa Ana, CA). Mixtures were homogenized at 5 m∙s^−1 for 20 s, rested on ice for 5 min, then homogenized again at 4.5 m∙s^−1 for 20 s in a FastPrep-24 instrument. Cell lysates were centrifuged at 16,200× g for 15 min at 4 °C to remove cell debris. Total bacterial RNA and tRNA^Tyr populations were isolated from the supernatant using Qiagen RNeasy Mini kits and miRNeasy kits, respectively, following the manufacturer’s recommendations (Germantown, MD). For qRT-PCR, 2 µg of RNA substrate was treated with 2 units of DNase I (New England Biolabs, Ipswich, MA, USA) for 1 h at 37 °C and re-purified using Qiagen RNeasy Mini kits, following the manufacturer’s instructions. RNA was measured for concentration and quality using a NanoDrop spectrophotometer. Quantabio (Beverly, MA, USA) qScript cDNA Supermix was used to convert 200 ng of RNA into cDNA, following manufacturer’s instructions, which was subsequently amplified using Quantabio SYBR Green Fast Mix following manufacturer’s instructions. Fluorescence was read on the BioRad (Hercules, CA, USA) CFX 96 Connect Real Time Machine. Transcript levels were compared to the internal control 16S rRNA (ΔΔCt) and plotted as fold change compared to the control. The following primer pairs were used in this study for qRT-PCR: spa forward—[…]; spa reverse—[…]; –15 ptRNA^Tyr forward—[…]; tRNA^Tyr reverse—TGGTG GAGGGGGGCAGATTC; 16S rRNA forward—[…]; 16S rRNA reverse—[…].

S. aureus strain UAMS-1 = assay: Minimum inhibitory concentration (MIC) testing, CLSI broth microdilution; type: cell-based, Staphylococcus aureus; conditions: for MIC: Staphylococcus aureus, S. aureus strain UAMS-1, read-out: MIC
Method: Staphylococcus aureus strains UAMS-1 is a well-characterized antibiotic susceptible osteomyelitis clinical isolate (Blevins Infect. Immun 2003). For experiments, UAMS-1 was cultured in Mueller Hinton (MH) broth and processed as described below. Escherichia coli strain BL21 (DE3) was cultured in Luria–Bertani (LB) and supplemented with ampicillin (50 µg ml^−1) where indicated.
Minimum inhibitory concentration (MIC) was performed according to the Clinical and Laboratory Standards Institute (CLSI) guidelines. Briefly, individual wells of a 96-well microtiter plate were inoculated with 10^4 colony forming units (CFU) of S. aureus UAMS-1 containing two-fold increasing concentrations (0 µM to 100 µM) of the indicated antibiotic or putative RnpA inhibitor and grown at 37 °C for 16 h in MH broth. The MIC was defined as the lowest concentration of compound in which there was no visible bacterial growth detected by the unaided eye.

S. aureus UAMS-1 = assay: Fractional inhibitory concentration (FIC) testing with mupirocin; type: cell-based, Staphylococcus aureus; conditions: for MIC: Staphylococcus aureus, UAMS1, compound alone, read-out: Cpd MIC, Dosed-Individually; for Antimicrobial interaction with mupirocin (class by FIC index) / FIC Index: compound + mupirocin; for Cpd MIC, Dosed-Combination: compound MIC in combination with mupirocin
Method: Fractional inhibitory concentration (FIC) testing was performed, as previously described. Briefly, each well of a 96-well microtiter plate was inoculated with 10^4 CFU of S. aureus UAMS-1 [42]. Each row of the plate was supplemented with two-fold increasing concentrations of mupirocin (0 µg mL^−1 to 2 µg mL^−1) whereas each column contained two-fold increasing concentrations of putative RnpA inhibitor compound (0.03, 0.0625, 0.125, 0.25, 0.5, 1, or 2× MIC). […] The FIC index was defined by the following formula: FIC = (MIC of Drug A in Combination/MIC of Drug A Alone) + (MIC of Drug B in Combination/MIC of Drug B Alone). A synergistic interaction was defined as a FIC value of ≤0.5, an additive interaction as 0.5–1, no interaction as 1–4 and antagonistic interaction as FIC ≥ 4, as described.

S. aureus RnpA = target: T1, S. aureus RnpA (Staphylococcus aureus, UniProt P0A0H5); assay: In vitro RnpA mRNA degradation assay (RNase Alert FRET substrate); type: biochemical; conditions: for RNA degradation inhibition in time course study: 50 µM compound, 30 min at 37 °C, Figure 2A; for IC50: in vitro RnpA-mediated RNA degradation, read-out: mRNA IC50
T1 construct: made in house; host or cells: E. coli BL21 (DE3)
T1 sequence (P0A0H5 1-117): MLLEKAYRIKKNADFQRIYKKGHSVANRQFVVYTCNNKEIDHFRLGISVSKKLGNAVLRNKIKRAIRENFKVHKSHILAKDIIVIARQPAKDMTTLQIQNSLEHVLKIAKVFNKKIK
Method: His-tagged RnpA was purified as previously described. E. coli BL21 (DE3) cells harboring plasmid pEXP5-nt containing a hexahistidine tag fused to the N-terminus of S.aureus RnpA coding region were grown in LB supplemented with 50 µg mL^−1 ampicillin to OD600 = 0.6 and induced with 1mM isopropyl β-D-1-thiogalactopyranoside (IPTG) for three hours to induce protein expression. […] Cells were mechanically lysed by three passes at 18,000 psi through a French Pressure Cell Press (SLM-Aminco; Pittsford, NY, USA) and cell debris was removed by centrifugation at 17,000× g for 10 min at 4 °C. Supernatants were collected, filtered through a 0.2 micron syringe filter, then loaded onto a 5 mL HisPur cobalt column (ThermoFisher Scientific, Waltham, MA, U.S.A.) using the BioRad Maximizer Duo-Flow Medium Pressure Chromatography System. Protein was eluted using an imidazole gradient (80 mM to 500 mM). Fractions were assessed for RnpA presence and purity via SDS-PAGE analysis, Coomassie staining and Western blotting using an anti-His antibody (Invitrogen; Grand Island, NY, USA).
RnpA-mediated degradation was assessed using the Rnase Alert QC System (Thermofisher Scientific). 20 pmol of His-RnpA was combined with 0.4 μM (final concentration) FRET substrate and either DMSO (negative control) or compound ≤500 µM in 1× Rnase Alert Buffer. Reactions were assembled in 96-well PCR plates (BioRad) and incubated at 37 °C for 30 min in the BioRad CFX 96 Connect Real Time instrument, measuring fluorescence every 2 min at 490 nm excitation/520 nm emission. Percent inhibition of each compound was calculated at the 30 min time-point based on the following formula: (RFU of compound treated RnpA/RFU of DMSO-treated RnpA) × 100.

SMILES | Cellular ptRNA^Tyr accumulation (in words) [1] | MIC (S. aureus strain UAMS-1; UAMS1) | Fold improvement in anti-staphylococcal activity (MIC) over JR1 (S. aureus strain UAMS-1; compared with JR1) | MIC (S. aureus UAMS-1) | Antimicrobial interaction with mupirocin (class by FIC index) (S. aureus UAMS-1) | FIC Index (S. aureus UAMS-1) | Cpd MIC, Dosed-Combination (S. aureus UAMS-1) | Inhibition of in vitro RnpA-mediated RNA degradation (in words) (S. aureus RnpA) | RNA degradation inhibition in time course study (S. aureus RnpA) | IC50 (S. aureus RnpA) | MIC (S. aureus strain UAMS-1; UAMS1, 16 h) | Fold reduction of antimicrobial activity, six-membered vs seven-membered ring matched pair (S. aureus strain UAMS-1; matched molecular pairs)
O=C(Nc1ccc(C(F)(F)F)cc1)c1c(NC(=O)C(F)(F)F)sc2c1CCCCC2 [RNP0012] | largest increases; also recorded: top-performing cellular ptRNA processing inhibitor | 0.19 µM and 0.086 µg/mL | 6.6 fold | 0.19 µM | additive (a value of 0.5 < FIC ≤ 1 indicates additive effect) | 0.75 | 0.048 µM | good inhibitory properties | varying degrees of RNA degradation inhibition | 68 µM |  | 
O=C(Nc1cccc(C(F)(F)F)c1)c1c(NC(=O)C(F)(F)F)sc2c1CCCC2 [RNP0016] | little effect | 3.12 µM and 1.36 µg/mL |  | 3.12 µM | additive (a value of 0.5 < FIC ≤ 1 indicates additive effect) | 1 | 1.56 µM | good inhibitory properties |  | 45 µM |  | 
O=C(Nc1cccc(F)c1)c1c(NC(=O)C(F)(F)F)sc2c1CCCCC2 [RNP0008] | largest increases | 0.391 µM and 0.16 µg/mL |  | 0.391 µM |  | 1 | 0.196 µM | least effective | varying degrees of RNA degradation inhibition | 245 µM |  | 
O=C(Nc1cccc(F)c1)c1c(NC(=O)C(F)(F)F)sc2c1CCCC2 [RNP0013] | little effect | 6.25 µM and 2.4 µg/mL |  | 6.25 µM |  | 0.75 | 1.56 µM | good inhibitory properties |  | 50 µM |  | 
O=C(Nc1cccc(C(F)(F)F)c1)c1c(NC(=O)C(F)(F)F)sc2c1CCCCC2 [RNP0011] | little effect | 0.391 µM and 0.18 µg/mL |  | 0.391 µM |  | 0.75 | 0.098 µM | good inhibitory properties |  | 59 µM |  | 
Cc1cccc(NC(=O)c2c(NC(=O)C(F)(F)F)sc3c2CCCCC3)c1 [RNP0010] | largest increases | 3.12 µM and 1.24 µg/mL |  | 3.12 µM |  | 0.75 | 0.78 µM | least effective |  | 224 µM | 3.21 µM (≈ 1.27 µg/mL) | 
O=C(Nc1ccc(C(F)(F)F)cc1)c1c(NC(=O)C(F)(F)F)sc2c1CCCC2 [RNP0015] | little effect | 0.78 µM and 0.34 µg/mL |  | 0.78 µM |  | 1.5 | 0.78 µM | good inhibitory properties |  | 43 µM |  | fourfold less potent
O=C(Nc1ccc(F)cc1)c1c(NC(=O)C(F)(F)F)sc2c1CCCC2 [RNP0014] | little effect | 6.25 µM and 2.4 µg/mL |  | 6.25 µM | synergistic (FIC ≤ 0.5 indicates synergistic activity) | 0.5 | 1.56 µM | strongest inhibitor | varying degrees of RNA degradation inhibition | 6.4 µM |  | 
O=C(Nc1cccc(Cl)c1)c1c(NC(=O)C(F)(F)F)sc2c1CCCCC2 [RNP0007] | little effect | 0.391 µM and 0.16 µg/mL |  | 0.391 µM |  | 0.75 | 0.098 µM | least effective; also recorded: weakly inhibited | varying degrees of RNA degradation inhibition | 175 µM |  | 
O=C(Nc1ccc(F)cc1)c1c(NC(=O)C(F)(F)F)sc2c1CCCCC2 [RNP0009] | largest increases | 0.78 µM and 0.32 µg/mL |  | 0.78 µM |  | 0.75 | 0.196 µM | least effective |  | > 250 µM |  | 
